# Target: T1, rR-HPCDH1 (Xanthobacter versatilis, UniProt Q56840)
# T1 sequence (Q56840 2-250): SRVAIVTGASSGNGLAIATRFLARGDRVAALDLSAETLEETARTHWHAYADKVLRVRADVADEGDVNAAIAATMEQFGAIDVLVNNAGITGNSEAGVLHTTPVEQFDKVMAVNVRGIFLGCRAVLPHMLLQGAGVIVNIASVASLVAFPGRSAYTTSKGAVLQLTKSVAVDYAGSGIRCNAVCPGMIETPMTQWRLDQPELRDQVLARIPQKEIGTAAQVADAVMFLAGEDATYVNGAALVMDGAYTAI
# Assay: NADH absorbance at […] nm, initial rates
# Type: biochemical
smiles,measurement,value
"CC(C)(O)CSCCS(=O)(=O)O [M-HPC, 2-(2-methyl-2-hydroxypropylthio)ethanesulfonate]",Ki,290 ± 14 µM

# Source: paper PMC2858264 (Biochemistry, 2010)
